Data as given in BigSolDB 2.1.

OCC1(O)OC[C@@H](O)[C@@H](O)[C@H]1O (some centres not stated)
solubility (mole fraction)
Settings	283.15 K	288.15 K	293.15 K	298.15 K	303.15 K	308.15 K	313.15 K	318.15 K	323.15 K
in methanol	–	–	–	–	–	0.0512	0.0705	0.0895	0.116
in methyl acetate	0.000227	0.000298	0.000389	0.000619	0.000851	0.00105	0.00139	0.00187	0.00231
in n-butanol	0.00111	0.00125	0.0018	0.0024	0.00329	0.00456	0.00579	0.00747	0.00952
in n-butyl acetate	0.000243	0.000359	0.000443	0.000593	0.000796	0.001	0.00131	0.00165	0.002
in n-hexanol	0.000659	0.000835	0.000961	0.00143	0.00216	0.00301	0.004	0.00509	0.00652
in n-pentanol	0.00133	0.00134	0.0017	0.00202	0.00269	0.00356	0.00448	0.00561	0.00721
in n-propanol	0.0015	0.00191	0.00234	0.00335	0.00446	0.00567	0.00751	0.00956	0.0121
in sec-butanol	0.001	0.00178	0.00238	0.00324	0.0045	0.00617	0.0079	0.0105	0.0135
